According to US10770169B2, “Method of providing a treatment to a subject based on a dynamic pathway map” (THE REGENTS OF THE UNIVERSITY OF CALIFORNIA, priority 2010, dated 2020):
Entries after “also recorded” stand apart in the source; their conditions may differ.

Experiments:
breast cancer cell lines = experiment: Association of growth rate and response (2-way ANCOVA); type: cell-based, human
From the text: To assess the effects of cell line class and growth rate on drug sensitivity, we performed a set of 2-way Analysis of Covariance (ANCOVA) tests, one for each of the three cell line classification schemes described above. […] We performed these analyses in R with the functions lm and ANOVA, which is available as part of the car package.

[1] = test system: luminal, basal, claudin-low and ERBB2AMP breast cancer cell lines; experiment: Associations of clinically relevant subtypes and response (non-parametric ANOVA or t-test on GI50 ranks); type: cell-based, human
Summary of the method: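 Significance was set at FDR p<0.20 after combining p-values across three test sets. Subtype–response associations came from rank-based non-parametric ANOVA or t-tests on GI50. For three-class comparisons, post-hoc tests of each group against the rest identified the most sensitive group, with FDR correction.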

[2] = test system: panel of 55 breast cancer cell lines; experiment: Cell growth inhibition assay (Cell Titer Glo, 72 h, 9 doses; GI50, TGI, LC50); type: cell-based, human; details: value is the negative log10 of mol/L
[3] = test system: TCR-activated CD4(+) T cells; details: cited from earlier work

O=c1[nH]cc(F)c(=O)[nH]1 [5-FU, 5-florouracil]
significance of subtype and doubling time in ANCOVA model (breast cancer cell lines; listed as 5-florouracil): not significant in the subtype test alone but showed strong significance in the ANCOVA model for both class and doubling time | significance of subtype and doubling time in ANCOVA model (breast cancer cell lines; listed as 5′FU): strong effects of both subtype and growth rate on response | response as a function of doubling time (breast cancer cell lines; luminal and basal cell lines): decreased as doubling time increased in both luminal and basal cell lines

Cc1cc(Nc2cc(N3CCN(C)CC3)nc(Sc3ccc(NC(=O)C4CC4)cc3)n2)n[nH]1 [VX-680]
association of response with ERBB2 amplification [1]: negatively associated with ERBB2 amplification | subtype-specific response (sensitivity by transcriptional subtype) ([1]; GI50 across subtypes): ERBB2^AMP cell lines were resistant; also recorded: ERBB2AMP cell lines are resistant | Subtype specificity ([1]; Table 6, most sensitive subtype, FDR p<0.20): not ERBB2AMP | GI50 ([2]; AU565 cell line, censored GI50 values): 5.66 | GI50 ([2]; BT20 cell line, censored GI50 values): 4.72 | GI50 ([2]; BT474 cell line, censored GI50 values): 4.54 | GI50 ([2]; BT483 cell line, censored GI50 values): 5.44 | GI50 ([2]; HCC38 cell line, censored GI50 values): 6.94 | GI50 ([2]; HCC70 cell line, censored GI50 values): 5.35 | GI50 ([2]; HCC1143 cell line, censored GI50 values): 5.98 | GI50 ([2]; HCC1187 cell line, censored GI50 values): 6.93 | GI50 ([2]; HCC1419 cell line, censored GI50 values): 4.81 | GI50 ([2]; HCC1428 cell line, censored GI50 values): 5.10 | GI50 ([2]; HCC1500 cell line, censored GI50 values): 4.56 | GI50 ([2]; HCC1937 cell line, censored GI50 values): 5.10 | GI50 ([2]; HCC2185 cell line, censored GI50 values): 6.46 | GI50 ([2]; HCC3153 cell line, censored GI50 values): 4.76 | GI50 ([2]; MCF7 cell line, censored GI50 values): 5.08 | GI50 ([2]; MDAMB134VI cell line, censored GI50 values): 6.11 | GI50 ([2]; MDAMB175VII cell line, censored GI50 values): 4.61 | GI50 ([2]; MDAMB361 cell line, censored GI50 values): 5.63 | GI50 ([2]; MDAMB415 cell line, censored GI50 values): 4.86 | GI50 ([2]; MDAMB436 cell line, censored GI50 values): 6.19 | GI50 ([2]; MDAMB453 cell line, censored GI50 values): 5.03 | GI50 ([2]; MDAMB468 cell line, censored GI50 values): 6.95 | GI50 ([2]; SUM52PE cell line, censored GI50 values): 6.41 | GI50 ([2]; SUM149PT cell line, censored GI50 values): 5.07 | GI50 ([2]; SUM159PT cell line, censored GI50 values): 6.37 | GI50 ([2]; SUM185PE cell line, censored GI50 values): 5.62 | GI50 ([2]; SUM1315MO2 cell line, censored GI50 values): 5.65 | GI50 ([2]; T47D cell line, censored GI50 values): 5.03 | GI50 ([2]; ZR75B cell line, censored GI50 values): 6.79 | GI50 ([2]; ZR751 cell line, censored GI50 values): 5.27 | GI50 ([2]; cell line AU565): 5.66 | GI50 ([2]; cell line BT20): 4.72 | GI50 ([2]; cell line BT474): 4.54 | GI50 ([2]; cell line BT483): 5.44 | GI50 ([2]; cell line CAMA1): 4.58 | GI50 ([2]; cell line HCC38): 6.94 | GI50 ([2]; cell line HCC70): 5.35 | GI50 ([2]; cell line HCC1143): 5.98 | GI50 ([2]; cell line HCC1187): 6.93 | GI50 ([2]; cell line HCC1419): 4.81 | GI50 ([2]; cell line HCC1428): 5.10 | GI50 ([2]; cell line HCC1500): 4.56 | GI50 ([2]; cell line HCC1937): 5.10 | GI50 ([2]; cell line HCC1954): 4.48 | GI50 ([2]; cell line HCC2185): 6.46 | GI50 ([2]; cell line HCC3153): 4.76 | GI50 ([2]; cell line MCF7): 5.08 | GI50 ([2]; cell line MDAMB134V): 6.11 | GI50 ([2]; cell line MDAMB175V): 4.61 | GI50 ([2]; cell line MDAMB361): 5.63 | GI50 ([2]; cell line MDAMB415): 4.86 | GI50 ([2]; cell line MDAMB436): 6.19 | GI50 ([2]; cell line MDAMB453): 5.03 | GI50 ([2]; cell line MDAMB468): 6.95 | GI50 ([2]; cell line SKBR3): 4.48 | GI50 ([2]; cell line SUM52PE): 6.41 | GI50 ([2]; cell line SUM149PT): 5.07 | GI50 ([2]; cell line SUM159PT): 6.37 | GI50 ([2]; cell line SUM185PE): 5.62 | GI50 ([2]; cell line SUM1315MO): 5.65 | GI50 ([2]; cell line T47D): 5.03 | GI50 ([2]; cell line UACC812): 4.50 | GI50 ([2]; cell line ZR75B): 6.79 | GI50 ([2]; cell line ZR751): 5.27

Cc1ccc(NC(=O)c2ccc(CN3CCN(C)CC3)cc2)cc1Nc1nccc(-c2cccnc2)n1 [imatinib]
interferon-gamma production [3]: inhibit interferon-gamma production
